According to patent publication US20150148311A1, “NON-SYSTEMIC TGR5 AGONISTS” (Ardelyx, Inc., priority 2011, published 2015):
Where two headings read alike, the source gives them in different places.

Tests used:
human TGR5 = target: T1, human TGR5 (Homo sapiens, UniProt Q8TDU6); assay: Cell-based TGR5 assay, HEK293 cells stably expressing human TGR5, cAMP by HTRF; conditions: 0.05 nM to 10 μM
T1 construct: expressed in transfected cells
T1 sequence (Q8TDU6 1-330): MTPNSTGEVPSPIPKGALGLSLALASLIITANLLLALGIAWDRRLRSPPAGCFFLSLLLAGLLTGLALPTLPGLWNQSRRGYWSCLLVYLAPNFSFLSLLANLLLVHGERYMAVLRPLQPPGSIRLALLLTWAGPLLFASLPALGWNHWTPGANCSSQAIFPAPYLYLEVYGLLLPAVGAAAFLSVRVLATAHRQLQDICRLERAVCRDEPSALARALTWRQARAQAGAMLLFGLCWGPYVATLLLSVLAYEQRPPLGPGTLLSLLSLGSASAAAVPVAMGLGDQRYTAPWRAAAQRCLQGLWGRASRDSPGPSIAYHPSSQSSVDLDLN
Protocol: (§1) Two primary cell based screens were performed. The first utilized HEK293 cells stably transfected to heterologously express human TGR5. The second screen used the human caecum carcinoma cell line NCI-H716 which endogenously expresses human TGR5. In both assays, cells are treated with candidate TGR5 activators and assessed for the increased intercellular levels of cAMP.
HEK293 cells were transfected with a vector that expresses a gene encoding human TGR5, and a stable cell line was isolated using drug selection following standard techniques. Cells were grown overnight at 37° C./5% CO2 prior to assay.
(§2) TGR5-mediated cAMP generation was measured using a homogeneous time resolved fluorescence (HTRF) detection method (Cisbio). Test compounds were dissolved in DMSO to a final concentration of 10 mM. Serial 3-fold dilutions of the stock solution were made in DMSO, and these solutions were diluted 100-fold into Hanks Balanced Salt Solution supplemented with 10 mM HEPES pH 7.4 and 0.5 mM isobutyl methylxanthine (IBMX). Prior to assay, culture medium was replaced with fresh medium, and test compounds diluted in HBSS/HEPES/IBMX were added to the cells and incubated at 37° C. for 30 minutes.
(§3) Following incubation with test compounds, cAMP was detected through the successive addition of cAMP labeled with the modified allophyocyanin dye d2 (cAMP-d2) and cryptate-labeled anti-cAMP in lysis buffer, and reading HTRF per the manufacturer's instructions. A standard curve was used to convert the raw HTRF data into [cAMP].

[1] = target: T2, endogenously expressed TGR5 in NCI H716 (Homo sapiens, UniProt Q8TDU6); assay: Cell-based TGR5 assay, NCI-H716 cells endogenously expressing human TGR5, cAMP by HTRF; conditions: 30 min at 37 C, 22 nM to 50 μM, read-out: pEC50 endogenously expressed TGR5 in NCI H716 (converted)
T2 construct: human caecum carcinoma cell line NCI-H716 which endogenously expresses human TGR5; endogenous in cells; host or cells: NCI-H716
T2 sequence (Q8TDU6 1-330): T1 sequence (Q8TDU6 1-330)
Protocol: as §1, with “cAMP. […]” for “cAMP.”
as §2, §3

[2] = HEK293 cells stably expressing human TGR5, 30 min at 37 C, read-out: pEC50 Human TGR5 (converted)

| Structure (SMILES) | EC50 (human TGR5; [2]) [nM] | EC50 [1] [nM] | EC50 (human TGR5; pEC50 Human TGR5, HEK293 cells stably expressing human TGR5, 30 min at 37 C) [nM] |
| --- | --- | --- | --- |
| CC(c1cc(Cl)ccc1Cl)N1CCC[C@H]1C(=O)N1CCN(C2CC2)c2ccccc21 (single isomer, unassigned) [Example 67] | 1260 to 50100 | 1260 to 50100 | – |
| CN(C[C@H](O)[C@@H](O)[C@H](O)[C@H](O)CO)C(=O)CCc1cc(Cl)c(CNC2(C(=O)N3CCN(C4CC4)c4ccccc43)CC2)cc1Cl [Example 91, 3-(2,5-dichloro-4-((1-(4-cyclopropyl-1,2,3,4-tetrahydroquinoxaline-1-carbonyl)cyclopropylamino)methyl)phenyl)-N-methyl-N-((2S,3R,4R,5R)-2,3,4,5,6-pentahydroxyhexyl)propanamide] | 126 to 1000 | 126 to 1000 | – |
| CC(C(=O)N1CCN(C2CC2)c2ccccc21)N1CCc2ccc(Cl)cc2C1 (stereo not drawn) [Example 244] | 1260 to 50100 | 1260 to 50100 | – |
| CN(C[C@H](O)[C@@H](O)[C@@H](O)[C@H](O)CO)C(=O)CCc1ccc(Cl)c(CNC2(C(=O)N3CCN(C4CC4)c4ccccc43)CC2)c1 [Example 71, 3-(4-chloro-3-(((1-(4-cyclopropyl-1,2,3,4-tetrahydroquinoxaline-1-carbonyl)cyclopropyl)amino)methyl)phenyl)-N-methyl-N-((2S,3R,4S,5R)-2,3,4,5,6-pentahydroxyhexyl)propanamide] | 126 to 1000 | 126 to 1000 | – |
| O=C(N1CCN(C2CC2)c2ccccc21)C1(OCc2cc(Cl)ccc2Cl)COC1 [Example 179, (4-cyclopropyl-3,4-dihydroquinoxalin-1(2H)-yl)(3-(2,5-dichlorobenzyloxyl)oxetan-3-yl)methanone] | < 100 | 126 to 1000 | – |
| CC(C(=O)N1CCN(C2CC2)c2ccccc21)N(C)Cc1cc(Cl)ccc1Cl (stereo not drawn) [Example 243] | 126 to 1000 | 1260 to 50100 | – |
| O=C(CCc1cc(Cl)c(CNC2(C(=O)N3CCN(C4CC4)c4ccccc43)CC2)cc1Cl)NCCOCCOCCNC(=O)CCc1cc(Cl)c(CNC2(C(=O)N3CCN(C4CC4)c4ccccc43)CC2)cc1Cl [Example 95, N,N′-(2,2′-(ethane-1,2-diylbis(oxy))bis(ethane-2,1-diyl))bis(3-(2,5-dichloro-4-((1-(4-cyclopropyl-1,2,3,4-tetrahydroquinoxaline-1-carbonyl)cyclopropylamino)methyl)phenyl)propanamide)] | < 100 | 1260 to 50100 | – |
| O=C(N1CCN(C2CC2)c2ccccc21)C1(OCc2cc(C(F)(F)F)ccc2Cl)CC1 [Example 43, 1-[(1-[[2-chloro-5-(trifluoromethyl)phenyl]methoxy]cyclopropyl)carbonyl]-4-cyclopropyl-1,2,3,4-tetrahydroquinoxaline] | < 100 | < 100 | – |
| O=C(N1CCN(C2CC2)c2ccccc21)C1(OCc2cc(Cl)ccc2Cl)CCC1 [Example 41, 1-cyclopropyl-4-([1-[(2,5-dichlorophenyl)methoxy]cyclobutyl]carbonyl)-1,2,3,4-tetrahydroquinoxaline] | < 100 | 126 to 1000 | – |
| O=C(N1CCN(C2CC2)c2ccccc21)C1(OCc2cc(Cl)ccc2Cl)CCOCC1 [Example 79, 1-cyclopropyl-4-([4-[(2,5-dichlorophenyl)methoxy]oxan-4-yl]carbonyl)-1,2,3,4-tetrahydroquinoxaline] | 126 to 1000 | 1260 to 50100 | – |
| CN(C[C@H](O)[C@@H](O)[C@H](O)[C@H](O)CO)C(=O)CCc1ccc(Cl)c(CN2CSC[C@H]2C(=O)N2CCN(C3CC3)c3ccccc32)c1 [Example 215] | 126 to 1000 | 1260 to 50100 | – |
| CN(C)c1nc(NCCCCCc2cc(Cl)c(CN3CSC[C@H]3C(=O)N3CCN(C4CC4)c4ccccc43)cc2Cl)nc(NC(CO)(CO)CO)n1 [Example 200] | 126 to 1000 | – | – |
| O=C(O)c1cnn(Cc2cc(Cl)c(CN3CSC[C@H]3C(=O)N3CCN(C4CC4)c4ccccc43)cc2Cl)c1 [Example 232] | 1260 to 50100 | – | – |
| CN(C[C@H](O)[C@@H](O)[C@H](O)[C@H](O)CO)C(=O)CCCCc1cc(Cl)c(COC2(C(=O)N3CCN(C4CC4)c4ccccc43)CC2)cc1Cl [Example 192] | < 100 | – | – |
| CN(C[C@H](O)[C@@H](O)[C@H](O)[C@H](O)CO)C(=O)c1cccc(OCc2cc(Cl)c(CN3CSC[C@H]3C(=O)N3CCN(C4CC4)c4ccccc43)cc2Cl)c1 [Example 230] | 126 to 1000 | – | – |
| CN(C[C@H](O)[C@H](O)[C@@H](O)[C@H](O)CO)C(=O)c1ccc(CCc2cc(Cl)c(CN3CSC[C@H]3C(=O)N3CCN(C4CC4)c4ccccc43)cc2Cl)cn1 [Example 201] | 126 to 1000 | – | – |
| CN(C[C@H](O)[C@@H](O)[C@H](O)[C@H](O)CO)C(=O)CCCCc1ccc(C(F)(F)F)c(CN2CSC[C@H]2C(=O)N2CCN(C3CC3)c3ccccc32)c1 [Example 269] | 1260 to 50100 | – | – |

| Structure (SMILES) | EC50 (human TGR5; [2]) [nM] | EC50 [1] [nM] | EC50 (human TGR5; pEC50 Human TGR5, HEK293 cells stably expressing human TGR5, 30 min at 37 C) [nM] |
| --- | --- | --- | --- |
| CN(C[C@H](O)C(O)[C@H](O)[C@H](O)CO)C(=O)CC[C@H](NC(=O)CCCCc1cc(Cl)c(CN2CSC[C@H]2C(=O)N2CCN(C3CC3)c3ccccc32)cc1Cl)C(=O)N(C)C[C@H](O)[C@@H](O)[C@H](O)[C@H](O)CO (stereo partly drawn) [Example 280] | 126 to 1000 | – | – |
| COC(=O)c1cc(NCCCCCc2cc(Cl)c(CN3CSC[C@H]3C(=O)N3CCN(C4CC4)c4ccccc43)cc2Cl)nc(N(C)C[C@H](O)[C@@H](O)[C@H](O)[C@H](O)CO)n1 [Example 223] | 126 to 1000 | – | – |
| O=C([C@@H]1CSCN1Cc1cc(I)ccc1C(F)(F)F)N1CCN(C2CC2)c2ccccc21 [Example 270] | 126 to 1000 | – | – |
| O=C(CCCCc1ccc(C(F)(F)F)c(CNC2(C(=O)N3CCN(C4CC4)c4ccccc43)CC2)c1)NC[C@H](O)[C@@H](O)[C@H](O)[C@H](O)CO [Example 272] | 1260 to 50100 | – | – |
| NCCCC[C@@H]1NC(=O)N(CCCCCc2cc(Cl)c(CN3CSC[C@H]3C(=O)N3CCN(C4CC4)c4ccccc43)cc2Cl)C1=O [Example 273] | 126 to 1000 | – | – |
| O=C(NCCCN(CCCNC(=O)[C@H](O)[C@@H](O)[C@H](O)[C@H](O)CO)C(=O)c1ccc(COc2cc(Cl)c(CN3CSC[C@H]3C(=O)N3CCN(C4CC4)c4ccccc43)cc2Cl)cc1)[C@H](O)[C@@H](O)[C@H](O)[C@H](O)CO [Example 197] | 1260 to 50100 | – | – |
| O=C(NC[C@H](O)[C@@H](O)[C@H](O)[C@H](O)CO)c1cnn(Cc2cc(Cl)c(CN3CSC[C@H]3C(=O)N3CCN(C4CC4)c4ccccc43)cc2Cl)c1 [Example 234] | < 100 | – | – |
| Cn1nc(C(=O)O)cc1OCc1cc(Cl)c(CN2CSC[C@H]2C(=O)N2CCN(C3CC3)c3ccccc32)cc1Cl [Example 233] | 126 to 1000 | – | – |
| CN(C[C@H](O)[C@@H](O)[C@H](O)[C@H](O)CO)C(=O)c1cnc(SCc2cc(Cl)c(CN3CSC[C@H]3C(=O)N3CCN(C4CC4)c4ccccc43)cc2Cl)n1C [Example 231] | 126 to 1000 | – | – |
| CN(CCO)c1nc(NCCCCCc2cc(Cl)c(CN3CSC[C@H]3C(=O)N3CCN(C4CC4)c4ccccc43)cc2Cl)cc(C(=O)NC[C@H](O)[C@@H](O)[C@H](O)[C@H](O)CO)n1 [Example 225] | < 100 | – | – |
| O=C(CCCCc1ccc(C(F)(F)F)c(CN2CSC[C@H]2C(=O)N2CCN(C3CC3)c3ccccc32)c1)NC[C@H](O)[C@@H](O)[C@H](O)[C@H](O)CO [Example 271] | 1260 to 50100 | – | – |
| O=C([C@@H]1CSCN1Cc1cc(Cl)c(CN2CSC[C@H]2C(=O)N2CCN(C3CC3)c3ccccc32)cc1Cl)N1CCN(C2CC2)c2ccccc21 [Example 284] | 1260 to 50100 | – | – |
| O=C(C1SCCN1Cc1cc(Cl)ccc1Cl)N1CCN(C2CC2)c2ccccc21 (stereo not drawn) [Example 291] | 1260 to 50100 | – | – |
| COC(=O)[C@@H](CCCCN)NC(=O)NCCCCCc1cc(Cl)c(CN2CSC[C@H]2C(=O)N2CCN(C3CC3)c3ccccc32)cc1Cl [Example 275] | 126 to 1000 | – | – |
| O=C(N1CCN(C2CC2)c2ccccc21)C1(NCc2c(Cl)ccc(Cl)c2O)CC1 [Example 168, (4-cyclopropyl-3,4-dihydroquinoxalin-1(2H)-yl)(1-((3,6-dichloro-2-hydroxybenzyl)amino)cyclopropyl)methanone] | 126 to 1000 | – | – |
| O=C([C@H]1C[C@H](F)CN1Cc1cc(Cl)ccc1C(F)(F)F)N1CCN(C2CC2)c2ccccc21 [Example 264] | 126 to 1000 | – | – |
| O=C(NCCCN(CCCNC(=O)[C@H](O)[C@@H](O)[C@H](O)[C@H](O)CO)C(=O)NCCCCOc1cc(Cl)c(CN2CSC[C@H]2C(=O)N2CCN(C3CC3)c3ccccc32)cc1Cl)[C@H](O)[C@@H](O)[C@H](O)[C@H](O)CO [Example 195] | – | – | 126 to 1000 |
